The values that follow come from patent publication US20240041042A1, “1-(PYRIDYL)-5-AZINYLPYRAZOLE DERIVATIVES, AND THEIR USE FOR CONTROL OF UNDESIRED PLANT GROWTH” (Bayer Aktiengesellschaft, priority 2020, published 2024).

Common to all, as to type: in vivo
Data set [1] relates to Brassica napus (BRSNW). The note with it: crop plant compatibility, in comparison to untreated controls. In outline: (§1)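 Scoring: visual, % of untreated control, about 3 weeks after a pre-emergence application to the soil surface. Application used WP or EC formulations diluted in water with 0.5% additive at 600 l/ha; dosage levels are marked by suffixes a, b and c.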
Data set [2] has as its system Glycine max (GLXMA). The following applies: pre-emergence, crop plant compatibility, in comparison to untreated controls. In outline: as §1
In data set [3] the test system is Zea mays (ZEAMX). The following applies: pre-emergence, crop plant compatibility, in comparison to untreated controls. In outline:
as §1

For data set [4], the system named is Echinochloa crus-galli (ECHCG). The data set can be described thus: Post-emergence herbicidal action against ECHCG. The following applies: dosage 320 g/ha. In outline:
(§2)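 Values are percent visual activity (0% like control, 100% plants dead) after about 3 weeks in the greenhouse. Treatment: post-emergence spray at one-leaf stage, 600 l/ha spray volume, 0.5% additive, doses 320 g/ha or lower.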

The test system of data set [5] is Pharbitis purpurea (PHBPU). Put plainly: Post-emergence herbicidal action against PHBPU. The following applies: dosage 320 g/ha. In outline:
as §2

Data set [6] concerns Oryza sativa (ORYSA). The following applies: crop plant compatibility. In outline:
(§3)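 Test crops were treated 2 to 3 weeks after sowing, once they reached one leaf, by spraying compound in water with 0.5% additive at 600 l/ha. Visual scoring compared them with untreated controls roughly 3 weeks on, and appendices a, b and c denote different doses.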

Data set [7] has as its system Triticum aestivum (TRZAS). The following applies: crop plant compatibility, effect vs untreated controls. In outline:
as §3

Data set [8] deals with Zea mays (ZEAMX). The following applies: for Post-emergence action against ZEAMX in %: crop plant compatibility, effect vs untreated controls. In outline:
as §3

In data set [9] the test system is Abutilon theophrasti (ABUTH). Put plainly: Pre-emergence herbicidal action against ABUTH. The note with it: Dosage column 320 g/ha (title prints 3200 g/ha); scored visually after about 3 weeks; 100% = plants have died. In outline:
(§4)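 Greenhouse pot trial: seeds sown, soil-covered, sprayed before emergence with compound in water (0.5% additive; 600 l/ha; ≤320 g/ha). Scoring visual, ~3 weeks, 0–100% scale vs untreated.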

The test system of data set [10] is Amaranthus retroflexus (AMARE). The data set can be described thus: Pre-emergence herbicidal action against AMARE. The following applies: 320 g/ha, visual scoring after about 3 weeks vs untreated controls. In outline: as §4
Data set [11] relates to Lolium rigidum (LOLRI). Put plainly: Pre-emergence herbicidal action against LOLRI. The note with it: dosage 320 g/ha. In outline: as §4
In data set [12] the test system is Setaria viridis (SETVI). The data set can be described thus: Pre-emergence herbicidal action against SETVI. The following applies: dosage 320 g/ha. In outline:
as §4

In data set [13] the test system is Viola tricolor (VIOTR). The data set can be described thus: Pre-emergence herbicidal action against VIOTR. The following applies: 320 g/ha, Viola tricolor. In outline: as §4
Data set [14] has as its system Oryza sativa (ORYSA). The following applies: pre-emergence, crop plant compatibility, in comparison to untreated controls. In outline:
as §1

Data set [15] has as its system Triticum aestivum (TRZAS). The note with it: pre-emergence, crop plant compatibility, in comparison to untreated controls. In outline:
as §1

The test system of data set [16] is Amaranthus retroflexus (AMARE). Put plainly: Post-emergence herbicidal action against AMARE. In outline: as §2
Data set [17] concerns Avena fatua (AVEFA). The data set can be described thus: Post-emergence herbicidal action against AVEFA. The note with it: 320 g/ha, visual rating about 3 weeks after treatment. In outline:
as §2

In data set [18] the test system is Polygonum convolvulus (POLCO). The data set can be described thus: Post-emergence herbicidal action against POLCO. The note with it: dosage 320 g/ha. In outline:
as §2

The subject of data set [19] is Alopecurus myosuroides (ALOMY). Put plainly: Pre-emergence herbicidal action against ALOMY. The note with it: 320 g/ha; scored visually after about 3 weeks; 100% = plants have died. In outline: as §4
Data set [20] deals with Abutilon theophrasti (ABUTH). The data set can be described thus: Post-emergence herbicidal action against ABUTH. The note with it: 80 g/ha, visual rating about 3 weeks after treatment vs untreated controls (100% = plants have died, 0% = like control plants). In outline: as §2
Setting [21] is: 80 g/ha, effect in comparison to untreated controls.
Setting [22] is: 320 g/ha, effect in comparison to untreated controls.
Setting [23] is: 80 g/ha, visual rating about 3 weeks after treatment vs untreated controls (100% = plants have died, 0% = like control plants).
The mark [24] stands for this setting: 20 g/ha, effect vs untreated controls.

Like-named read-outs stand apart in the source and are kept apart here.

For `COc1cccnc1-n1nc(OCC(=O)O)c(Br)c1-c1ccc(F)nc1` [Example I-363], the “Pre-emergence action against BRSNW in %” value turned out to be 0% in [1] (80 g/ha) and 20% in data set [1] (320 g/ha). Further, the “Pre-emergence action against GLXMA in %” value in data set [2] (80 g/ha) and in data set [2] (320 g/ha) was 0% in each case. Also, the “Pre-emergence action against ZEAMX in %” value in data set [3] (80 g/ha) and in data set [3] (320 g/ha) was 0% in each case. Moreover, the “Post-emergence action against ECHCG in %” value in [4] came out at 80%. In [5], the “Post-emergence action against PHBPU in %” value stood at 80%. Also, the “Post-emergence action against ORYSA in %” value in data set [6] (setting [21]) and in [6] (setting [22]) was 0% each time. The “Post-emergence action against TRZAS in %” value in data set [7] (80 g/ha) is listed as 0%. The “Post-emergence action against ZEAMX in %” value in [8] (80 g/ha) and in data set [8] (320 g/ha) was 0% each time.
Consider `O=C(COc1nn(-c2ccccn2)c(-c2ccc(F)nc2)c1Br)NS(=O)(=O)CC(F)(F)F` [Example I-60], for which, in data set [9], the “Pre-emergence action against ABUTH” value is listed as 80%. In addition, in data set [10], the “Pre-emergence action against AMARE in %” value amounted to 90%. Besides, the “Pre-emergence action against LOLRI in %” value in [11] was 80%. Also, the “Pre-emergence action against SETVI in %” value in data set [12] is 80%. Further, the “Pre-emergence action against VIOTR in %” value in data set [13] was found to be 80%. In addition, the “Pre-emergence action against GLXMA in %” value in [2] (80 g/ha) is recorded as 20%. Also, the “Pre-emergence action against ORYSA in %” value in [14] (80 g/ha) was 0%. In data set [15] (80 g/ha), the “Pre-emergence action against TRZAS in %” value is 0%. The “Pre-emergence action against ZEAMX in %” value in data set [3] (80 g/ha) is 0%. The “Post-emergence action against AMARE in %” value is given as 80% in data set [16] (setting [23]) and 80% in data set [16] (320 g/ha, visual rating about 3 weeks after treatment). Moreover, in data set [17], the “Post-emergence action against AVEFA in %” value is recorded as 90%. The “Post-emergence action against ECHCG in %” value in data set [4] turned out to be 80%. Also, the “Post-emergence action against POLCO in %” value in [18] was 80%. For the same molecule, the “Post-emergence action against ORYSA in %” value in data set [6] (setting [21]) and in [6] (setting [22]) was 0% throughout.
With `COC(=O)[C@H](C)NC(=O)COc1nn(-c2ccnc(Cl)c2)c(-c2ccc(F)nc2)c1Br` [III-18], the “Pre-emergence action against GLXMA in %” value in [2] (80 g/ha) is 0%. In addition, the “Pre-emergence action against ORYSA in %” value in [14] (80 g/ha) and in [14] (320 g/ha) was 0% throughout. Besides, the entries for the “Pre-emergence action against TRZAS in %” value in data set [15] (80 g/ha) and in data set [15] (320 g/ha) were 0% and 20%, respectively. The “Pre-emergence action against ZEAMX in %” value in data set [3] (80 g/ha) and in [3] (320 g/ha) was 20% each time. Also, the “Post-emergence action against AMARE in %” value in data set [16] (setting [23]) is listed as 80%. The “Post-emergence action against ORYSA in %” value in data set [6] (setting [24]) and in data set [6] (setting [21]) was 0% throughout. Also, the “Post-emergence action against TRZAS in %” value in data set [7] (20 g/ha) and in data set [7] (80 g/ha) was 0% in each case. The “Post-emergence action against ZEAMX in % (crop plant compatibility)” value in data set [8] (20 g/ha, ZEAMX, effect in comparison to untreated controls) is 0%. Besides, the “Post-emergence action against ZEAMX in %” value in data set [8] (80 g/ha) came out at 0%.
For `CCOC(=O)COc1nn(-c2ccccn2)c(-c2ccc(F)nc2)c1C1CC1` [Example I-78], the “Pre-emergence action against ALOMY” value in [19] is on record as 90%. For the same molecule, the “Pre-emergence action against SETVI in %” value in data set [12] is 80%. For the same molecule, the “Pre-emergence action against VIOTR in %” value in data set [13] is 80%. The “Pre-emergence action against GLXMA in %” value in [2] (80 g/ha) is 0%. Moreover, the “Pre-emergence action against ORYSA in %” value in [14] (80 g/ha) and in [14] (320 g/ha) was 0% throughout. For the same molecule, the “Pre-emergence action against TRZAS in %” value in data set [15] (80 g/ha) amounted to 0%. Besides, the “Pre-emergence action against ZEAMX in %” value in [3] (80 g/ha) and in data set [3] (320 g/ha) was 0% in each case. For the same molecule, in data set [20], the “Post-emergence action against ABUTH in %” value was 80%. Besides, the “Post-emergence action against AMARE in %” value in data set [16] (setting [23]) is given as 80%. Also, the “Post-emergence action against ORYSA in %” value in data set [6] (setting [24]) came out at 0%; in data set [6] (setting [21]) it was 20%. Also, the figures for the “Post-emergence action against TRZAS in %” value in [7] (20 g/ha) and in [7] (80 g/ha) were 0% and 20%, respectively.
